Assay results from article PMC13327620, “A Deep‐Red‐Absorbing Osmium(II) Complex as a Photosensitizer for Photodynamic Therapy Inducing Immunogenic Cell Death” (Angewandte Chemie (International Ed. in English), 2026).

How the values were obtained:
[1] = tested on: CT26‐luc cells; assay: Annexin V-FITC/propidium iodide (AV/PI) cell viability assay by flow cytometry; format: cell-based, mouse; details: 740 nm LED light (60 min, 12.6 J cm^−2)
Procedure: Following the gold standard assessment method, the Annexin V‐FITC/propidium iodide (AV/PI) dual staining assay was conducted to screen the suitable concentrations of each drug (Figure S25). In addition, to better monitor tumor growth in vivo, luciferase‐labelled tumor cells (CT26‐luc) were used for in vivo experiments by bioluminescence imaging. […] As the concentration of each drug was increased, the proportion of live cells decreased, while the percentage of dying cells (Q3, Annexin V^+/PI^−) and dead cells (Q2, Annexin V^+/PI^+ and Q1, Annexin V^−/PI^+) increased. The concentrations at which approximately 5% of the cells remained alive (IC95) were 600 µM for Cisplatin in the dark, 1.8 µM for Os2, and 6.5 µM for Ce6 upon 740 nm LED light irradiation (60 min, 12.6 J cm^−2). These concentrations were selected for the subsequent in vivo vaccination studies. […]
incubated for 24 h. Cells were then treat ed with the determined IC50 of complexes and irradiated or kept in the dark. Supernatants were collected 12 h post-t reatm ent, and the extracellular ATP content was measured with Adenosine 5′ -triphosphate (ATP) Bioluminescent Assay Kit (Sigma-Aldrich) according tomanufacturer ’s ins truction. […]
556419) and PI (BD Biosciences, Catalog no.51- 66211E). CT26- luc cells were analyzed by flow cytometry (Beckm an Coulter Life Sciences, CytoFLEX LX Flow Cytometer). […]

[2] = tested on: calreticulin (ecto‐CRT); assay: Immunofluorescence staining of cell surface calreticulin in CT26 cells; format: cell-based, mouse; details: CT26, 740 nm light
Procedure: Next, translocation of ER‐resident calreticulin (endo‐CRT) to the cell surface (ecto‐CRT) was measured by confocal microscopy following treatments with Ce6 or Os2 exposed to 740 or 770 nm illumination (Figure 3B,D). In this experiment, cells were fixed but not permeabilized before CRT staining to label only the ecto‐CRT, which is present at the cell surface. […]
concentrations and incub ated for 4 h in the dark. Following the 4 h dark incubation with Os2, wells containing the compound were replaced with the medium containing the selective ROS s caveng ers: 5 mM sodium azide (NaN₃) for singlet oxygen (¹O₂) or 50 mM D-mannitol for hydroxyl radicals (•OH). […] Cell viability was assessed using a 0.2 mg/mL resazurin solution incubated in the dark for 4 h, and fluorescence was measured on a BioTek Cytation 5 Cell Imaging Multimode […]
Singlet oxygen and hydroxyl r adical generation k inetics of Os2 in s olution The generation of singlet oxygen (¹O₂) and hydroxyl radicals (•OH) by Os2 in solution was evalu ated using AB DA (100 μ M) and HPF (5 μ M) as probes, respectively. […] AB DA absorban ce d ecay was monitored to track ¹O₂ gener ation, while HPF fluorescence increas e (λex = 490 nm; λ em = 500-700 nm) was measured to track •OH formation. Control solutions without Os2 wer e measured under the same conditions to account for background signals. […]

Q: Which “Concentration at which approximately 5% of the cells remained alive (IC95)” value [1] does the source give for `C=Cc1c(C)c2cc3nc(c(CC(=O)O)c4[nH]c(cc5nc(cc1[nH]2)C(C)=C5CC)c(C)c4C(=O)O)[C@@H](CCC(=O)O)[C@@H]3C` [Ce6, chlorin e6] here?
A: The value was 6.5 µM.

Q: What about the “ecto‐CRT signal” value [2] of the same compound?
A: The value was “weaker, but clearly visible”.
